{"source": "paper PMC5267425", "about": "“Identification of small molecule modulators of HIV-1 Tat and Rev protein accumulation” (Retrovirology, 2017)", "system": "alternative splicing of host transcripts in HeLa rtTA HIV∆Mls cells", "assay": "RT-PCR of host alternative splicing events (PSI), capillary electrophoresis", "assay_type": "cell-based", "set-up": "PSI ZNF827_1 / PSI RAN_1 / PSI SEC24B_1 / PSI SMN2_1 / PSI TRIM37_1 / PSI RPS24_1 / PSI PDCL_1 / PSI SMN2_2 / PSI SETD5_1 / PSI RAI14_1 / PSI TPM1_1 / PSI SPAG9_1 / PSI POLDIP3_1 / PSI SRPK2_1 / PSI POMT1_1: concentration or dose not given beside the values", "conditions": "for DPSI TPM1_1: P Value 0.330", "protocol": "To assess the effect of compounds on expression/alternative splicing of cellular RNA, two approaches were used. For both, total RNA was prepared from DMSO or compound-treated cells. In the first assay, samples were assayed by medium throughput RT-PCR to determine the inclusion levels of alternatively spliced exons and splice sites located in 73 selected events. 73 primer sets containing a fluorescently (5-FAM) labeled primer for each, were used in RT-PCR. PCR products generated were denatured in formamide and quantified using ABI Prism capillary sequencer (Life Technologies). The fragment analysis was performed on the PeakScanner software (Life Technologies) in batch mode and automated using custom scripts written in Python. The inclusion level of each exon was calculated as the amount of transcripts carrying the alternative exon relative to the total amount of all transcripts detected in the PCR reaction and results are summarized for compound-treatment in comparison to DMSO treatment. In the second assay, extracted RNA was processed using the Illumina TruSeq RNA Sample Preparation Kit (Illumina) according to the manufacturer’s instructions. The cDNA library generated was validated (passed quality control on a Bioanalyzer 1000 DNA chip (Agilent)), normalized and pooled for cluster generation. cDNA libraries were sequenced on the Illumina HiSeq 2500 (paired-end, 125 bp) with version 4 chemistry following manufacturer’s protocols. The full human genome and transcriptomic sequences were downloaded from the UCSC Genome Browser (genome.ucsc.edu) database and Ensembl (www.ensembl.org), respectively, as described by Irimia et al.. Exon annotations and genomic coordinates for alternative splicing (AS) analysis were derived from tables downloaded from the UCSC Genome Browser database. To determine gene expression (GE) or alternative splicing (AS) changes in an unbiased way, the effective number of unique mappable positions in each transcript (i.e. the effective length) was determined by aligning sequences with unique transcriptomic alignment to the human genome using Bowtie. Reads with one unique genomic alignment were then aligned against the canonical transcriptome and, for each transcript, the number of reads with one unique transcriptomic alignment were counted. The expression level of genes was quantified as corrected ‘reads per kilobase of exon model per million mapped reads’ (cRPKM), a widely used metric to estimate gene expression levels. The expression cutoff was 0.5 cRPKM, corresponding to the transcript of the gene being present if there were ≥10 reads that mapped uniquely to a single genomic locus. Approximately 19,847 Ensembl annotated protein-coding genes were compared to create a gene list of differentially expressed genes. Genes were considered differentially expressed if fold changes in cRPKM was ≥2 in compound-treated versus DMSO-treated samples.", "key": {"[1]": {"conditions": "of 70 AS events, 5193892 vs DMSO, HeLa rtTA-HIV-DMls cells"}}, "note": "Values joined by “and” are separate entries in the source; they are usually repeats but may differ in a detail not shown here. Equal values may be shown once.", "data": [{"smiles": "COc1ccc(C=NNC(=O)c2ccccc2O)cc1O", "note": "[Compound 892, 2-hydroxy-N′-(3-hydroxy-4-methoxybenzylidene)benzohydrazide]", "values": [{"measurement": "PSI NUMB_2", "setting": "chr14:72815742-72815885, HeLa rtTA-HIV-DMls cells, replicates 25, 26, 27", "result": 26.00}, {"measurement": "DPSI NUMB_2", "setting": "chr14:72815742-72815885, mean PSI 5193892 minus DMSO, n=3, P Value 0.004", "result": 8.67, "unit": "%"}, {"measurement": "PSI NUMB_2", "setting": "chr14:72820542-72820835, HeLa rtTA-HIV-DMls cells, replicates 25, 26, 27", "result": "82.00 and 96.00 and 95.00"}, {"measurement": "DPSI NUMB_2", "setting": "chr14:72820542-72820835, mean PSI 5193892 minus DMSO, n=3, P Value 0.525", "result": 4.67, "unit": "%"}, {"measurement": "PSI MARK3_1", "setting": "chr14:103034592-103034618, HeLa rtTA-HIV-DMls cells, replicates 25, 26, 27", "result": "20.00 and 13.00 and 16.00"}, {"measurement": "DPSI MARK3_1", "setting": "chr14:103034592-103034618, mean PSI 5193892 minus DMSO, n=3, P Value 0.734", "result": 1.00, "unit": "%"}, {"measurement": "PSI MARK3_1", "setting": "chr14:103036246-103036290, HeLa rtTA-HIV-DMls cells, replicates 25, 26, 27", "result": "11.00 (2×) and 9.00"}, {"measurement": "PSI TPM1_1", "setting": "chr15:61140450-61140525, HeLa rtTA-HIV-DMls cells, replicates 25, 26, 27", "result": "84.00 and 73.00 and 67.00"}, {"measurement": "DPSI TPM1_1", "setting": "chr15:61140450-61140525, mean PSI 5193892 minus DMSO, n=3", "result": -6.67, "unit": "%"}, {"measurement": "PSI TPM1_1", "setting": "chr15:61140965-61141040, HeLa rtTA-HIV-DMls cells, replicates 25, 26, 27", "result": "16.00 and 27.00 and 33.00"}, {"measurement": "DPSI TPM1_1", "setting": "chr15:61140965-61141040, mean PSI 5193892 minus DMSO, n=3", "result": 6.67, "unit": "%"}, {"measurement": "PSI CA12_1", "setting": "chr15:61406400-61406485, HeLa rtTA-HIV-DMls cells, replicates 25, 26, 27", "result": "96.00 and 100.00 and 95.00"}, {"measurement": "DPSI CA12_1", "setting": "chr15:61406400-61406485, mean PSI 5193892 minus DMSO, n=3, P Value 0.851", "result": 0.33, "unit": "%"}, {"measurement": "PSI CA12_1", "setting": "chr15:61407349-61407382, HeLa rtTA-HIV-DMls cells, replicates 25, 26, 27", "result": "15.00 and 7.00 and 4.00"}, {"measurement": "PSI MRIP_1", "setting": "chr17:17024646-17024708, HeLa rtTA-HIV-DMls cells, replicates 25, 26, 27", "result": "32.00 and 31.00 (2×)"}, {"measurement": "DPSI MRIP_1", "setting": "chr17:17024646-17024708, mean PSI 5193892 minus DMSO, n=3, P Value 0.101", "result": 1.00, "unit": "%"}, {"measurement": "PSI ATP6V0A1_1", "setting": "chr17:37919833-37920004, HeLa rtTA-HIV-DMls cells, replicates 25, 26, 27", "result": "81.00 and 86.00 and 77.00"}, {"measurement": "DPSI ATP6V0A1_1", "setting": "chr17:37919833-37920004, mean PSI 5193892 minus DMSO, n=3, P Value 0.331", "result": 3.33, "unit": "%"}, {"measurement": "PSI SPAG9_1", "setting": "chr17:46408223-46408261, HeLa rtTA-HIV-DMls cells, replicates 25, 26, 27", "result": "25.00 and 17.00 and 16.00"}, {"measurement": "PSI TRIM37_1", "setting": "chr17:54433741-54433857, HeLa rtTA-HIV-DMls cells, replicates 25, 26, 27", "result": "69.00 and 71.00 and 68.00"}, {"measurement": "DPSI TRIM37_1", "setting": "chr17:54433741-54433857, mean PSI 5193892 minus DMSO, n=3, P Value 0.063", "result": -4.33, "unit": "%"}, {"measurement": "PSI FAM104A_1", "setting": "chr17:68720412-68720474, HeLa rtTA-HIV-DMls cells, replicates 25, 26, 27", "result": "15.00 and 20.00 and 18.00"}, {"measurement": "DPSI FAM104A_1", "setting": "chr17:68720412-68720474, mean PSI 5193892 minus DMSO, n=3, P Value 0.523", "result": -2.33, "unit": "%"}, {"measurement": "PSI EXOC7_1", "setting": "chr17:71598005-71598035, HeLa rtTA-HIV-DMls cells, replicates 25, 26, 27", "result": "35.00 and 23.00 and 25.00"}, {"measurement": "DPSI EXOC7_1", "setting": "chr17:71598005-71598035, mean PSI 5193892 minus DMSO, n=3, P Value 0.709", "result": 2.67, "unit": "%"}, {"measurement": "PSI EXOC7_1", "setting": "chr17:71598819-71598911, HeLa rtTA-HIV-DMls cells, replicates 25, 26, 27", "result": 27.00}, {"measurement": "DPSI EXOC7_1", "setting": "chr17:71598819-71598911, mean PSI 5193892 minus DMSO, n=3, P Value 0.003", "result": 5.67, "unit": "%"}, {"measurement": "PSI MBD1_1", "setting": "chr18:46054554-46054721, HeLa rtTA-HIV-DMls cells, replicates 25, 26, 27", "result": "28.00 and 15.00 and 9.00"}, {"measurement": "PSI APP_1", "setting": "chr21:26291546-26291602, HeLa rtTA-HIV-DMls cells, replicates 25, 26, 27", "result": "30.00 and 32.00 and 34.00"}, {"measurement": "DPSI APP_1", "setting": "chr21:26291546-26291602, mean PSI 5193892 minus DMSO, n=3, P Value 0.279", "result": 1.67, "unit": "%"}, {"measurement": "PSI APP_1", "setting": "chr21:26294201-26294368, HeLa rtTA-HIV-DMls cells, replicates 25, 26, 27", "result": "71.00 and 77.00 and 81.00"}, {"measurement": "PSI POLDIP3_1", "setting": "chr22:41327919-41328006, HeLa rtTA-HIV-DMls cells, replicates 25, 26, 27", "result": "68.00 and 67.00 and 64.00"}, {"measurement": "DPSI POLDIP3_1", "setting": "chr22:41327919-41328006, mean PSI 5193892 minus DMSO, n=3, P Value 0.421", "result": 2.33, "unit": "%"}, {"measurement": "AS events with DPSI ≤ -10%", "setting": "[1]", "result": 7}, {"measurement": "AS events with DPSI ≥ 10%", "setting": "[1]", "result": 2}, {"measurement": "AS events with P ≤ 0.05", "setting": "[1]", "result": 18}]}]}
